The source of these data is ChEMBL document CHEMBL1201862, “PubChem BioAssay data set” (2004).

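Grown in 96-well plates, cells were treated for 48 hours with each compound at five concentrations. Insufficient inhibition: endpoint recorded as highest concentration tested. At the GI50, growth is halved.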 The source made the active and inactive calls. Cut-off read from the data, not from the text of the source: active = GI50 up to about 1.1 µM and inactive = higher.

What all share (assay): growth of human tumour cells (NCI), 48 h
Experiment [1] deals with 786-0.
Experiment [2] deals with A549.
The subject of experiment [3] is COLO 205.
Experiment [4] concerns HCC 2998.
Experiment [5] relates to HOP-62.
Experiment [6] concerns K562.
For experiment [7], the system named is KM12.
The test system of experiment [8] is LOX IMVI.
Experiment [9] concerns LXFL 529.
Experiment [10] relates to NCI-H226.
In experiment [11] the test system is OVCAR-5.
The subject of experiment [12] is OVCAR-8.
The subject of experiment [13] is SF-295.
For experiment [14], the system named is SK-OV-3.
The test system of experiment [15] is SW-620.
Experiment [16] concerns UACC-62.
Experiment [17] concerns RPMI-8226.
The subject of experiment [18] is BT-549.
For experiment [19], the system named is DU-145.
Experiment [20] relates to NCI/ADR-RES.

For the compound `O=c1c2cccnc2ncn1CCN1CCCCC1`, the GI50 in experiment [1], in [2], in experiment [3], in [4], in experiment [5] and in experiment [6] was > 100 µM (inactive) each time. For the same compound, the GI50 in experiment [7], in experiment [8], in experiment [9], in experiment [10], in experiment [11] and in experiment [12] was > 100 µM (inactive) each time. In addition, the GI50 in experiment [13], in [14], in experiment [15] and in experiment [16] was > 100 µM (inactive) in each case.

For the compound `COc1cc(CNc2cnc3cc(N)ccc3n2)cc(OC)c1OC`, the GI50 in experiment [1] is 43.7 µM (inactive); in experiment [2], 44.6 µM (inactive); in [3] it was 22.4 µM (inactive); in experiment [4], 35.1 µM (inactive); in experiment [5], 51.4 µM (inactive); in [6] it was 5.53 µM (inactive). The GI50 in experiment [7] was 66.4 µM (inactive); in experiment [8], 23.9 µM (inactive); in [9], 34.9 µM (inactive); in experiment [11] it was 68.2 µM (inactive); in [12], 37.4 µM (inactive); in [13], 17.3 µM (inactive). For the same compound, the GI50 in experiment [14] was 20.7 µM (inactive); in [15], 20 µM (inactive); in [16] it was 12.7 µM (inactive).

For the compound `CC1NS(=O)(=O)N(C)C1=O` (stereo not drawn), the GI50 in experiment [1] is > 10 µM (inactive); in experiment [2], > 100 µM (inactive); in experiment [4], > 100 µM (inactive); in experiment [5], > 100 µM (inactive); in experiment [6], > 100 µM (inactive); in [7], > 100 µM (inactive). The GI50 in [8], in experiment [9], in experiment [10], in [11], in experiment [12] and in experiment [17] was > 100 µM (inactive) in each case. Besides, the GI50 in [13], in experiment [14], in experiment [15] and in experiment [16] was > 100 µM (inactive) each time.

Take `CCCCCCCCCC1C(C)c2c([nH]c3ccccc23)C2C(=O)N(c3ccccc3)C(=O)C21` (stereo not drawn): the GI50 in experiment [1] is 12.4 µM (inactive); in experiment [2], 17.7 µM (inactive); in experiment [4] it was 12.9 µM (inactive); in experiment [5], 17.2 µM (inactive); in [6], 3.67 µM (inactive); in [7], 4.79 µM (inactive). Besides, the GI50 in experiment [9] is 35.6 µM (inactive); in [10], 12.2 µM (inactive); in experiment [11], 17.4 µM (inactive); in [12], 7.78 µM (inactive); in [17], 3.83 µM (inactive); in experiment [13], 15.4 µM (inactive). The results for the GI50 in experiment [14], in experiment [15] and in experiment [16] were 18.2 µM (inactive), 35.7 µM (inactive) and 18.3 µM (inactive), respectively.

`COC(=O)/C(C#N)=C1\CCc2ccccc21`: the GI50 in [1], in experiment [2], in [3], in experiment [4], in experiment [6] and in experiment [7] was > 100 µM (inactive) each time. Moreover, the GI50 in [8], in experiment [9], in experiment [10], in experiment [11], in experiment [12] and in experiment [17] was > 100 µM (inactive) throughout. Besides, the GI50 in [13], in [14], in [15] and in [16] was > 100 µM (inactive) in each case.

For `Cn1ccc(=NS(=O)(=O)c2ccccc2)cc1`, the GI50 in experiment [1], in experiment [2], in experiment [3], in [4], in [5] and in experiment [6] was > 100 µM (inactive) throughout. Also, the GI50 in experiment [7], in experiment [8], in [9], in experiment [11], in experiment [12] and in experiment [17] was > 100 µM (inactive) in each case. Further, the GI50 in experiment [13], in experiment [14] and in experiment [15] was > 100 µM (inactive) each time.

For `Nc1nc(O)c2c(ncn2CCO)n1`, the GI50 in experiment [1], in experiment [2], in [3], in experiment [4], in [5] and in experiment [8] was > 100 µM (inactive) throughout. Besides, the GI50 in experiment [9], in experiment [10], in [11], in experiment [12], in experiment [17] and in experiment [13] was > 100 µM (inactive) throughout. The GI50 in [14], in experiment [15] and in experiment [16] was > 100 µM (inactive) each time.

For `NC1=NS(=O)(=O)Nc2nc(-c3ccccc3)c(-c3ccccc3)nc21`, the GI50 in [1], in experiment [2], in experiment [3], in [4], in experiment [6] and in experiment [7] was > 100 µM (inactive) each time. For the same compound, the GI50 in [8], in experiment [9], in [10], in [11], in experiment [12] and in experiment [17] was > 100 µM (inactive) throughout. Moreover, the GI50 in [13], in [14], in [15] and in [16] was > 100 µM (inactive) throughout.

For the compound `N#Cc1c2nc3ccccc3nc2n2ccccc12`, the GI50 in experiment [1], in [2], in experiment [3], in experiment [4], in experiment [5] and in experiment [6] was > 100 µM (inactive) in each case. For the same compound, the GI50 in experiment [7], in [8], in experiment [9], in experiment [11], in experiment [12] and in experiment [17] was > 100 µM (inactive) in each case. The GI50 was 0.63 µM (active) in experiment [14], > 100 µM (inactive) in experiment [15] and > 100 µM (inactive) in experiment [16].

For the compound `O=C1c2cccc(O)c2C(=O)c2cccc(O)c21` [ANTHRARUFIN], the GI50 in [1], in experiment [2], in experiment [3], in experiment [4], in [5] and in experiment [6] was > 100 µM (inactive) each time. For the same compound, the GI50 in experiment [7], in experiment [8], in experiment [9], in experiment [10], in experiment [11] and in experiment [12] was > 100 µM (inactive) throughout. In addition, the GI50 in [17], in experiment [13], in experiment [15] and in [16] was > 100 µM (inactive) throughout.

Take `COC(=O)[C@](NC(=O)OCc1ccccc1)([C@@H](C)[S+]([O-])c1ccc(C)cc1)C(F)(F)F` (stereo partly drawn): the GI50 in experiment [1] was 52.2 µM (inactive); in experiment [2], 29.9 µM (inactive); in [18] it was 22.4 µM (inactive); in experiment [3], 25.8 µM (inactive); in experiment [19] it was 38.2 µM (inactive); in experiment [4] it was 32.6 µM (inactive). The GI50 in experiment [5] was > 100 µM (inactive); in [6] it was 34.4 µM (inactive); in experiment [7] it was 29.3 µM (inactive); in experiment [8] it was 33.7 µM (inactive); in experiment [10], 35.2 µM (inactive); in [20] it was 28.7 µM (inactive). The GI50 in experiment [11] is > 100 µM (inactive); in experiment [12], 35.2 µM (inactive); in [17] it was 26.5 µM (inactive); in [13] it was 32.7 µM (inactive); in experiment [14], 53.1 µM (inactive); in experiment [15] it was 53.2 µM (inactive). Besides, in experiment [16], the GI50 is 37.3 µM (inactive).

As for `CC(=O)Nc1ccc(S(=O)(=O)c2nnc(NC(C)=O)s2)cc1`, the GI50 was > 100 µM (inactive) in experiment [1]; > 100 µM (inactive) in experiment [2]; > 100 µM (inactive) in experiment [18]; 0.215 µM (active) in experiment [3]; > 100 µM (inactive) in [19]; > 100 µM (inactive) in experiment [4]. Further, the GI50 in [5], in experiment [6], in experiment [7], in experiment [8], in experiment [10] and in [20] was > 100 µM (inactive) in each case. Besides, the GI50 in [11] is > 100 µM (inactive); in experiment [12], > 100 µM (inactive); in [17], > 100 µM (inactive); in experiment [13], 25.5 µM (inactive); in [14], > 100 µM (inactive); in experiment [15], > 100 µM (inactive). The GI50 in experiment [16] is > 100 µM (inactive).
